Results reported in PubChem BioAssay AID1259411 (Chemical Carcinogenesis Research Information System (CCRIS), 2018).
The source made the active and inactive calls. The rule behind the calls is not given here.

System: rodent carcinogenicity bioassays, tumor incidence
Assay: CCRIS carcinogenicity studies
In short: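 Archive of carcinogenicity, mutagenicity, tumor promotion and tumor inhibition results drawn from journals, NCI reports and other sources, expert-reviewed; covers 1985-2011 and is no longer updated.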

For `CC1=C[C@]2(O[C@@H]3O[C@H](CO)[C@@H](O)[C@H](O)[C@H]3O)C[C@@H](C)C(=O)[C@@H]2[C@](C)(O)C12CC2`, the carcinogen call (Species: RAT, Strain/Sex: CD-1/FEMALE, Route: INTRAGASTRIC, Dose: 0, 100-150 MG/KG BW IN SALINE 2/WK FOR 8 WK THEN ONCE ON WK 9 (TOTAL DOSE: 0; 339 MG) (STUDY DURATION: 300 D), Dose: 0, 100-150 MG/KG BW IN SALINE 2/WK FOR 8 WK THEN ONCE ON WK 9 (TOTAL DOSE: 0; 339 MG) (STUDY DURATION: 300 D), Tumor Site: Type of Lesion: MAMMARY GLAND: ADENOCARCINOMA, CARCINOMA, SMALL INTESTINE: ADENOCARCINOMA, BLADDER: PAPILLOMA, Tumor Site: Type of Lesion: MAMMARY GLAND: ADENOCARCINOMA, CARCINOMA, SMALL INTESTINE: ADENOCARCINOMA, BLADDER: PAPILLOMA) was “active; positive” and the carcinogen call (Species: RAT, Strain/Sex: CD-1/FEMALE, Route: INTRAGASTRIC, Dose: 0, 780 MG/KG BW IN SALINE ONCE THEN 0, 100-200 MG/KG 1/WK FOR 8 WK (TOTAL DOSE: 0; 300 MG) (STUDY DURATION: 300 D), Dose: 0, 780 MG/KG BW IN SALINE ONCE THEN 0, 100-200 MG/KG 1/WK FOR 8 WK (TOTAL DOSE: 0; 300 MG) (STUDY DURATION: 300 D), Tumor Site: Type of Lesion: MAMMARY GLAND: ADENOCARCINOMA, CARCINOMA, SMALL INTESTINE: ADENOCARCINOMA) was “active; positive”.
With `O=C(O)[C@H]1O[C@@H](Nc2ccc3c(c2)Cc2ccccc2-3)[C@H](O)[C@@H](O)[C@@H]1O` the carcinogen call (Species: RAT, Strain/Sex: F344/MALE, Route: INJECTION, Dose: 0;1 UMOL IN 0.5 ML OF SOLUTION CONTAINING 0.4 ML PHOSPHATE BUFFERED SALINE/ GENTAMYCIN (PH 7) AND 0.1 ML DMSO INJECTED I) was “inactive; negative”.
For `CC(=O)N1C(C)CN(N=O)CC1C` (centres undefined), the carcinogen call (Species: RAT, Strain/Sex: F344/FEMALE, Route: ORAL, Dose: 0, 130 MG/L IN DRINKING WATER 5 D/WK FOR 30 WK, STUDY DURATION: 30-40 WK, Dose: 0, 130 MG/L IN DRINKING WATER 5 D/WK FOR 30 WK, STUDY DURATION: 30-40 WK, Tumor Site: Type of Lesion: ESOPHAGUS: CARCINOMA, TONGUE: PAPILLOMA OR CARCINOMA) was “active; positive”.
For `ClC1C(Cl)C(Cl)C(Cl)C(Cl)C1Cl` (centres undefined), the carcinogen call (Species: MOUSE, Strain/Sex: B6C3F1/FEMALE, Route: ORAL, Dose: 0, 80, 160 PPM IN DIET FOR 80 WK (STUDY DURATION: 90-91 WK), Dose: 0, 80, 160 PPM IN DIET FOR 80 WK (STUDY DURATION: 90-91 WK)) was “inactive; negative”, the carcinogen call (Species: MOUSE, Strain/Sex: CF-1/MALE,FEMALE, Route: ORAL, Dose: 200 MG/KG IN DIET, Tumor Site: Type of Lesion: LIVER: BENIGN TUMOR OR MALIGNANT TUMOR) was “active; positive” and the carcinogen call (Species: MOUSE, Strain/Sex: CF-1/MALE,FEMALE, Route: ORAL, Dose: 400 MG/KG IN DIET, Tumor Site: Type of Lesion: LIVER: BENIGN TUMOR OR MALIGNANT TUMOR) was “active; positive”. The carcinogen call (Species: MOUSE, Strain/Sex: DD/MALE, Route: ORAL, Dose: 0, 6.6, 66, 660 PPM IN BASAL DIET UNTIL SACRIFICE AT 24 WK (STUDY DURATION: 24 WK), Dose: 0, 6.6, 66, 660 PPM IN BASAL DIET UNTIL SACRIFICE AT 24 WK (STUDY DURATION: 24 WK), Tumor Site: Type of Lesion: LIVER: HEPATOMA) was “active; positive”, the carcinogen call (Species: MOUSE, Strain/Sex: MALE,FEMALE, Route: ORAL, Tumor Site: Type of Lesion: LIVER: BENIGN TUMOR OR MALIGNANT TUMOR) was “active; positive” and the carcinogen call (Species: RAT, Strain/Sex: OSBORNE-MENDEL/FEMALE, Route: ORAL, Dose: 0, 135, 270 PPM TWA, IN DIET FOR 80 WK (STUDY DURATION: 108-110 WK), Dose: 0, 135, 270 PPM TWA, IN DIET FOR 80 WK (STUDY DURATION: 108-110 WK)) was “inactive; negative”. For the same compound, the carcinogen call (Species: RAT, Strain/Sex: OSBORNE-MENDEL/MALE, Route: ORAL, Dose: 0, 236, 472 PPM TWA, IN DIET FOR 80 WK (STUDY DURATION: 109-110 WK), Dose: 0, 236, 472 PPM TWA, IN DIET FOR 80 WK (STUDY DURATION: 109-110 WK)) was “inactive; negative”, the carcinogen call (Species: Rat, Strain/Sex: Wistar/Female (50/Group), Route: Oral, Dose: 0, 0.06, 0.57, 5.6, 23.1 mg/kg/day of 99.5-99.7% lindane in diet for 18 mo, study duration 18 mo, Dose: 0, 0.06, 0.57, 5.6, 23.1 mg/kg/day of 99.5-99.7% lindane in diet for 18 mo, study duration 18 mo) was “inactive; negative” and the carcinogen call (Species: Rat, Strain/Sex: Wistar/Male (50/Group), Route: Oral, Dose: 0, 0.05, 0.45, 4.5, 18.7 mg/kg/day of 99.5-99.7% lindane in diet for 18 mo, study duration 18 mo, Dose: 0, 0.05, 0.45, 4.5, 18.7 mg/kg/day of 99.5-99.7% lindane in diet for 18 mo, study duration 18 mo) was “inactive; negative”.
In the case of `CC(=O)N(C)C`, the carcinogen call (Species: MOUSE, Strain/Sex: CRL:CD-1 (ICR)BR/FEMALE, Route: INHALATION, Dose: 0, 25, 100, 350 PPM 6 HR/D 5 D/WK FOR 18 MO (STUDY DURATION: 18 MO), Dose: 0, 25, 100, 350 PPM 6 HR/D 5 D/WK FOR 18 MO (STUDY DURATION: 18 MO)) is reported as “inactive; negative”, the carcinogen call (Species: MOUSE, Strain/Sex: CRL:CD-1 (ICR)BR/MALE, Route: INHALATION, Dose: 0, 25, 100, 350 PPM 6 HR/D 5 D/WK FOR 18 MO (STUDY DURATION: 18 MO), Dose: 0, 25, 100, 350 PPM 6 HR/D 5 D/WK FOR 18 MO (STUDY DURATION: 18 MO)) is reported as “inactive; negative” and the carcinogen call (Species: RAT, Strain/Sex: CRL:CD BR/FEMALE, Route: INHALATION, Dose: 0, 25, 100, 350 PPM 6 HR/D 5 D/WK FOR 2 YR (STUDY DURATION: 2 YR), Dose: 0, 25, 100, 350 PPM 6 HR/D 5 D/WK FOR 2 YR (STUDY DURATION: 2 YR)) is reported as “inactive; negative”. The carcinogen call (Species: RAT, Strain/Sex: CRL:CD BR/MALE, Route: INHALATION, Dose: 0, 25, 100, 350 PPM 6 HR/D 5 D/WK FOR 2 YR (STUDY DURATION: 2 YR), Dose: 0, 25, 100, 350 PPM 6 HR/D 5 D/WK FOR 2 YR (STUDY DURATION: 2 YR)) was “inactive; negative”.
In the case of `C[C@]12CC[C@@H]3c4ccc(O)cc4CC[C@H]3[C@@H]1CC[C@H]2O`, the carcinogen call (Species: HAMSTER, Strain/Sex: SYRIAN/MALE, Route: SUBCUTANEOUS IMPLANT, Dose: 0, 20 MG IN PELLETS IMPLANTED EVERY 2.5 MO FOR 9 MO (STUDY DURATION: 9 MO)) is reported as “inactive; negative”.
With `CC(C)CCC[C@@H](C)[C@H]1CC[C@H]2[C@@H]3C[C@@H]4O[C@@]45C[C@@H](O)CC[C@]5(C)[C@H]3CC[C@]12C` the carcinogen call (Species: RAT, Strain/Sex: STRAIN-CD/FEMALE, Route: INJECTION, Dose: 0, 12.3 UMOL (TOTAL DOSE) 1/6 INJECTED UNDER EACH OF 3 THORACIC AND 3 INGUINAL NIPPLES ONCE (STUDY DURATION: 44 WK)) was “inactive; negative”.
`C1CC2OC2CC1C1CO1` (centres undefined) was tested, and the carcinogen call (Species: MOUSE, Route: DERMAL, Tumor Site: Type of Lesion: INTEGUMENTARY SYSTEM (SKIN)) was “active; positive”, the carcinogen call (Species: MOUSE, Strain/Sex: B6C3F1/FEMALE, Route: DERMAL, Dose: 0, 2.5, 5, 10 MG/MOUSE IN ACETONE 5 D/WK FOR 103 WK, HIGH DOSE FEMALE MICE 85 WK (STUDY DURATION: 105 WK), Dose: 0, 2.5, 5, 10 MG/MOUSE IN ACETONE 5 D/WK FOR 103 WK, HIGH DOSE FEMALE MICE 85 WK (STUDY DURATION: 105 WK), Tumor Site: Type of Lesion: LUNG: ALVEOLAR/BRONCHIOLAR ADENOMA OR CARCINOMA, OVARY: GRANULOSA CELL TUMOR, GRANULOSA CELL TUMOR OR MALIGNANT GRANULOS) was “active; positive” and the carcinogen call (Species: MOUSE, Strain/Sex: B6C3F1/MALE, Route: DERMAL, Dose: 0, 2.5, 5, 10 MG/MOUSE IN ACETONE 5 D/WK FOR 103 WK (STUDY DURATION: 105 WK), Dose: 0, 2.5, 5, 10 MG/MOUSE IN ACETONE 5 D/WK FOR 103 WK (STUDY DURATION: 105 WK), Tumor Site: Type of Lesion: SKIN (APPLICATION SITE): BASOSQUAMOUS TUMOR MALIGNANT, BASOSQUAMOUS TUMOR MALIGNANT OR BASAL CELL CARCINOMA, SQUAMOUS CE) was “active; positive”. For the same compound, the carcinogen call (Species: RAT, Strain/Sex: F344/FEMALE, Route: DERMAL, Dose: 0, 15, 30 MG/RAT IN ACETONE 5 D/WK FOR 105 WK (STUDY DURATION: 106 WK), Dose: 0, 15, 30 MG/RAT IN ACETONE 5 D/WK FOR 105 WK (STUDY DURATION: 106 WK), Tumor Site: Type of Lesion: SKIN (APPLICATION SITE): BASAL CELL CARCINOMA, SEBACEOUS GLAND ADENOMA OR BASAL CELL CARCINOMA, SQUAMOUS CELL CARCINOMA) was “active; positive” and the carcinogen call (Species: RAT, Strain/Sex: F344/MALE, Route: DERMAL, Dose: 0, 15, 30 MG/RAT IN ACETONE 5 D/WK FOR 105 WK (STUDY DURATION: 106 WK), Dose: 0, 15, 30 MG/RAT IN ACETONE 5 D/WK FOR 105 WK (STUDY DURATION: 106 WK), Tumor Site: Type of Lesion: SKIN (APPLICATION SITE): BASAL CELL ADENOMA, BASAL CELL CARCINOMA, BASAL CELL ADENOMA OR SEBACEOUS GLAND ADENOMA, SQUAMO) was “active; positive”.
